Results reported in patent publication US5945566A, “Amino compounds of 6,7,8,9-tetrahydro-cyclopenta[a]naphthalene and of 2,3-dihydro-cyclopenta[e]indene” (Adir et Compagnie, priority 1997, dated 1999).

Legend:
[1] = target: T1, human dopamine D3 receptor (Homo sapiens, UniProt P35462); assay: human D3 receptor binding ([125I]-iodosulpride, CHO membranes)
T1 construct: expressed in transfected cells; membranes
Procedure: (§1) .check mark. In vitro: human D2 and D3 receptor binding study
(§2) CHO (Chinese Hamster Ovary) cells were transfected in a stable manner by the gene that codes for the human dopamine D2 or D3 receptor according to methods known from the literature. The native cells are deficient in the enzyme DHFR (DiHydroFolate Reductase). The cells are cultured in an incubator at 37° C. in a humid atmosphere of 5% CO2 /95% air. The transfections are carried out using Lipofectin (Gibco). The CHO cells, co-transfected with the human D2 receptor and the gene for resistance to phleomycin, were selected for their resistance to the presence of that antibiotic in the culture medium. The cells transfected with the human D3 receptor were selected in a medium containing no hypoxanthine/thymidine in the presence of methotrexate. […]
(§3) The ranges of concentration of each compound include at least seven points determined in triplicate, each experiment being repeated at least twice.
(§4) The incubation, which lasts for thirty minutes at 30° C., is terminated by means of rapid filtration over a Brandle apparatus, followed by three consecutive rinses with Tris-HCl buffer, pH 7.4, containing 120 mM NaCl. The filters recovered are then counted using a gamma counter. […]

[2] = target: T2, human dopamine D2 receptor (Homo sapiens, UniProt P14416); assay: human D2 receptor binding ([125I]-iodosulpride, CHO membranes); settings: dissociation constant of radioligand
T2 construct: expressed in transfected cells; membranes
Procedure: as §1, §2, §3, §4

T1 sequence (P35462 whole entry): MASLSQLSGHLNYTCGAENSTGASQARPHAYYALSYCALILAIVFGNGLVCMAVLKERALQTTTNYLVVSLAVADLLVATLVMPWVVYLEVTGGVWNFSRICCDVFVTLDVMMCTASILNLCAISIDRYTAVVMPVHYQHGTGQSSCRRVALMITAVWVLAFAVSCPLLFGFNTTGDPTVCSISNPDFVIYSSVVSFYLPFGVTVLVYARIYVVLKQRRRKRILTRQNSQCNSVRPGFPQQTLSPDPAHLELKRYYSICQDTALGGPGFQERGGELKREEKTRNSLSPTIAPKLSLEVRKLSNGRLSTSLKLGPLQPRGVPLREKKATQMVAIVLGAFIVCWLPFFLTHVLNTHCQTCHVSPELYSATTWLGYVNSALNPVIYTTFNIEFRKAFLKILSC
T2 sequence (P14416 whole entry): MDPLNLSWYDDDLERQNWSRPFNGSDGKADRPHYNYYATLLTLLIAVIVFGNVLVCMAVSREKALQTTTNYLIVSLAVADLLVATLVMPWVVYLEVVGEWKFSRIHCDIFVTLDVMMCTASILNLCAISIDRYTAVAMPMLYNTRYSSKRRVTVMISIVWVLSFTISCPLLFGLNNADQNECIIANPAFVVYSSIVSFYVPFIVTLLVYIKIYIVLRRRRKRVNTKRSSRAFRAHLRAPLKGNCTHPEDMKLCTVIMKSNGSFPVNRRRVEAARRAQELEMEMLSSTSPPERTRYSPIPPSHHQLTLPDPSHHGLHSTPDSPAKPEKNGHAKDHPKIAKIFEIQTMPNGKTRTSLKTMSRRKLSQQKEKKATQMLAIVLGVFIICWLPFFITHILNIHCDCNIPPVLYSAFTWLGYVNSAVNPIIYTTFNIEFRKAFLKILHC

Ki ([1]; [125I]-iodosulpride 0.2 nM, CHO membranes, pKi = -logKi)	Compound	Kd [2]	Kd ([1]; dissociation constant of radioligand)
10 nM	CCCN(CCC)C1CCc2c(ccc3c2C(=O)CC3)C1 (racemic) [Example 2, (7R,S)-7-(N,N-Dipropylamino)-6,7,8,9-tetrahydro-cyclopenta[a]-naphthalen-1-one]		
	[^125 I]-iodosulpride	0.5 nM	1.31 nM
